The source of these data is ChEMBL document CHEMBL1149870, “Synthesis and antibacterial activity of egonol derivatives” (2008).

Each structure is given as a SMILES string. ≈ marks a conversion by molar mass, not a printed value. Calls of active or inactive are those of the source.

What is called MIC is the smallest concentration in the dilution series that meets the test's criterion for growth inhibition. High values mean a less susceptible organism, low ones a more susceptible organism.

Format in all cases: functional
For one assay, the system named is Staphylococcus aureus. Put plainly: Antibacterial activity against Staphylococcus aureus by Muller Hilton broth method.
A further assay relates to Bacillus subtilis. Kind of assay: Antibacterial activity against Bacillus subtilis by Muller Hilton broth method.
The subject of another assay is Candida albicans. Put plainly: Antifungal activity against Candida albicans by Muller Hilton broth method.
In another assay the test system is Escherichia coli. Kind of assay: Antibacterial activity against Escherichia coli by Muller Hilton broth method.

As to `COc1cc(CCCOC(=O)c2ccccc2)cc2cc(-c3ccc4c(c3)OCO4)oc12`, the MIC with Staphylococcus aureus, against Bacillus subtilis, with Candida albicans and against Escherichia coli was 800 µg/mL (≈ 1860 µM) in each case.
On to `COc1cc(CCCOC=O)cc2cc(-c3ccc4c(c3)OCO4)oc12`, for which the MIC against Staphylococcus aureus, in the assay on Bacillus subtilis, in the assay with Candida albicans and in the assay with Escherichia coli was 400 µg/mL (≈ 1130 µM) in each case.
On to `COc1cc(CCCO)cc2cc(-c3ccc4c(c3)OCO4)oc12` [EGONOL], for which the MIC against Staphylococcus aureus, in the assay on Bacillus subtilis, in the assay with Candida albicans and with Escherichia coli was 800 µg/mL (≈ 2450 µM) in each case.
With `COc1c(Br)c(CCCO)cc2cc(-c3ccc4c(c3)OCO4)oc12`, the MIC against Staphylococcus aureus, against Bacillus subtilis, against Candida albicans and in the assay with Escherichia coli was 800 µg/mL (≈ 1970 µM) each time.
With `COc1cc(CCCOCCCBr)cc2cc(-c3ccc4c(c3)OCO4)oc12`, the MIC in the assay on Staphylococcus aureus came out at 256 µg/mL (≈ 572 µM); with Bacillus subtilis, 256 µg/mL (≈ 572 µM); in the assay on Candida albicans it was 800 µg/mL (≈ 1790 µM); against Escherichia coli, 800 µg/mL (≈ 1790 µM).
Turning to `COc1cc(CCCO)cc2c([N+](=O)[O-])c(-c3ccc4c(c3)OCO4)oc12`, the outcome with Staphylococcus aureus and in the assay with Escherichia coli was inactive. The minimal inhibitory concentration (MIC) in the assay on Bacillus subtilis and against Candida albicans was 800 µg/mL (≈ 2150 µM) each time.
On to `COc1cc(CCCI)cc2cc(-c3ccc4c(c3)OCO4)oc12`, for which the MIC against Staphylococcus aureus, in the assay on Bacillus subtilis, against Candida albicans and in the assay on Escherichia coli was 800 µg/mL (≈ 1830 µM) throughout.
In the case of `COc1cc(CCCC#N)cc2cc(-c3ccc4c(c3)OCO4)oc12`, the MIC against Staphylococcus aureus, in the assay on Bacillus subtilis and in the assay with Escherichia coli was 800 µg/mL (≈ 2390 µM) in each case. In the assay on Candida albicans, the result was inactive.
`COc1cc(CCCCl)cc2cc(-c3ccc4c(c3)OCO4)oc12`: the MIC with Staphylococcus aureus stood at 256 µg/mL (≈ 742 µM); against Bacillus subtilis, 128 µg/mL (≈ 371 µM); in the assay with Candida albicans, 64 µg/mL (≈ 186 µM); in the assay with Escherichia coli it was 256 µg/mL (≈ 742 µM).
As for `COc1cc(CCC=O)cc2cc(-c3ccc4c(c3)OCO4)oc12`, the MIC amounted to 64 µg/mL (≈ 197 µM) with Staphylococcus aureus, 256 µg/mL (≈ 789 µM) against Bacillus subtilis, 128 µg/mL (≈ 395 µM) against Candida albicans and 800 µg/mL (≈ 2470 µM) in the assay on Escherichia coli.
Consider `COc1cc(CCCBr)cc2cc(-c3ccc4c(c3)OCO4)oc12`, for which the MIC in the assay on Staphylococcus aureus came to 800 µg/mL (≈ 2060 µM); against Bacillus subtilis, 400 µg/mL (≈ 1030 µM); against Candida albicans, 400 µg/mL (≈ 1030 µM); against Escherichia coli, 800 µg/mL (≈ 2060 µM).
